This test has as its target Macrophage metalloelastase (Homo sapiens, UniProt P39900). Put plainly: Inhibition of MMP12 (unknown origin).

Molecules are shown by their SMILES.

Macrophage metalloelastase, sequence (P39900 whole entry): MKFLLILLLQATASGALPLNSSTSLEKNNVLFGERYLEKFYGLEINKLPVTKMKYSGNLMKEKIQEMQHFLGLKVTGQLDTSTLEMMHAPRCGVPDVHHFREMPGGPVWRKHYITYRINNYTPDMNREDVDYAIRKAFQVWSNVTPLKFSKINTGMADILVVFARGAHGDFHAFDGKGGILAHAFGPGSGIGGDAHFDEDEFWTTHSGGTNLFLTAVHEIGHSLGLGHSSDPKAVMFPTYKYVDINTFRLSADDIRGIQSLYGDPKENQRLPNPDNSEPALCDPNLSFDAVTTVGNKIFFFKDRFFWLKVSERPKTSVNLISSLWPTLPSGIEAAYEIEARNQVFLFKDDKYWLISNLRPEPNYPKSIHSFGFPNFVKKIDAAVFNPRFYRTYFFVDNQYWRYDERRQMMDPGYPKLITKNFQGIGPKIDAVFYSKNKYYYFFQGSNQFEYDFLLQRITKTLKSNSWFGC

Take `Oc1cccc(O)c1O`: the Ki (commonly the equilibrium dissociation constant of an inhibitor or competing ligand from its target) was found to be 2030 nM.

Values taken from BindingDB's records for PubMed 36250680 (University of Pisa, 2022).
